# Assay results taken from PubChem BioAssay (NCI).
#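 Briefly, cells in 96-well plates were exposed to five compound concentrations for 48 h, and endpoints were estimated by linear interpolation. Here, GI50 denotes the concentration required for 50% inhibition of growth. TGI denotes the concentration required for complete inhibition of growth.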
# Experiments:
# Assay in all cases: NCI anticancer screen, dose series, 48 h
# PC-3 prostate = system: PC-3 prostate
# KM12 colon = system: KM12 colon
# OVCAR-4 ovarian = system: OVCAR-4 ovarian
# NCI-H23 lung = system: NCI-H23 lung
# SF-295 CNS = system: SF-295 CNS
# NCI/ADR-RES ovarian = system: NCI/ADR-RES ovarian
# SN12C renal = system: SN12C renal
# NCI-H522 lung = system: NCI-H522 lung
# OVCAR-3 ovarian = system: OVCAR-3 ovarian
# OVCAR-5 ovarian = system: OVCAR-5 ovarian
# A498 renal = system: A498 renal
# A549 NSCLC = system: A549 NSCLC
# NCI-H226 lung = system: NCI-H226 lung
# HOP-92 NSCLC = system: HOP-92 NSCLC
# SF-539 CNS = system: SF-539 CNS
# SK-OV-3 ovarian = system: SK-OV-3 ovarian
# UO-31 renal = system: UO-31 renal
# HOP-62 NSCLC = system: HOP-62 NSCLC
# MCF7 breast = system: MCF7 breast
# RXF 393 renal = system: RXF 393 renal
# OVCAR-8 ovarian = system: OVCAR-8 ovarian
# SNB-75 CNS = system: SNB-75 CNS
# MALME-3M melanoma = system: MALME-3M melanoma
# IGROV1 ovarian = system: IGROV1 ovarian
# HS 578T breast = system: HS 578T breast
# TK-10 renal = system: TK-10 renal
# CAKI-1 renal = system: CAKI-1 renal
# HCC-2998 colon = system: HCC-2998 colon
# HCT-116 colon = system: HCT-116 colon
# UACC-257 melanoma = system: UACC-257 melanoma
# MDA-MB-435 = system: MDA-MB-435
# HCT-15 colon = system: HCT-15 colon
# UACC-62 melanoma = system: UACC-62 melanoma
# M14 melanoma = system: M14 melanoma
# SK-MEL-5 melanoma = system: SK-MEL-5 melanoma
# SR leukemia = system: SR leukemia
# MOLT-4 leukemia = system: MOLT-4 leukemia
# SF-268 CNS = system: SF-268 CNS
# BT-549 breast = system: BT-549 breast
# HL-60(TB) leukemia = system: HL-60(TB) leukemia
# COLO 205 colon = system: COLO 205 colon
# MDA-MB-231 breast = system: MDA-MB-231 breast
# SNB-19 CNS = system: SNB-19 CNS
# LOX IMVI melanoma = system: LOX IMVI melanoma
# 786-0 renal = system: 786-0 renal
# ACHN renal = system: ACHN renal
# RPMI-8226 leukemia = system: RPMI-8226 leukemia
# SW-620 colon = system: SW-620 colon
# NCI-H460 lung = system: NCI-H460 lung
# SK-MEL-2 melanoma = system: SK-MEL-2 melanoma
# EKVX NSCLC = system: EKVX NSCLC
# HT29 colon = system: HT29 colon
# U251 CNS = system: U251 CNS
# SK-MEL-28 melanoma = system: SK-MEL-28 melanoma
# T-47D breast = system: T-47D breast
# DU-145 prostate = system: DU-145 prostate
# CCRF-CEM leukemia = system: CCRF-CEM leukemia
compound,measurement,setting,value
C[C@]12CC[C@@H]3c4ccc(O)cc4C[C@@H](CCCCCCCCCS(=O)CCCC(F)(F)C(F)(F)F)[C@H]3[C@@H]1CC[C@@H]2O (some centres not stated),GI50,PC-3 prostate,> 100 µM
same,TGI,PC-3 prostate,> 100 µM
same,GI50,KM12 colon,> 100 µM
same,TGI,KM12 colon,> 100 µM
same,GI50,OVCAR-4 ovarian,> 100 µM
same,TGI,OVCAR-4 ovarian,> 100 µM
same,GI50,NCI-H23 lung,> 100 µM
same,TGI,NCI-H23 lung,> 100 µM
same,GI50,SF-295 CNS,> 100 µM
same,TGI,SF-295 CNS,> 100 µM
same,GI50,NCI/ADR-RES ovarian,> 100 µM
same,TGI,NCI/ADR-RES ovarian,> 100 µM
same,GI50,SN12C renal,> 100 µM
same,TGI,SN12C renal,> 100 µM
same,GI50,NCI-H522 lung,> 26.2 µM
same,TGI,NCI-H522 lung,> 100 µM
same,GI50,OVCAR-3 ovarian,> 100 µM
same,TGI,OVCAR-3 ovarian,> 100 µM
same,GI50,OVCAR-5 ovarian,> 100 µM
same,TGI,OVCAR-5 ovarian,> 100 µM
same,GI50,A498 renal,> 100 µM
same,TGI,A498 renal,> 100 µM
same,GI50,A549 NSCLC,> 69.9 µM
same,TGI,A549 NSCLC,> 100 µM
same,GI50,NCI-H226 lung,> 100 µM
same,TGI,NCI-H226 lung,> 100 µM
same,GI50,HOP-92 NSCLC,> 100 µM
same,TGI,HOP-92 NSCLC,> 100 µM
same,GI50,SF-539 CNS,> 100 µM
same,TGI,SF-539 CNS,> 100 µM
same,GI50,SK-OV-3 ovarian,> 100 µM
same,TGI,SK-OV-3 ovarian,> 100 µM
same,GI50,UO-31 renal,> 100 µM
same,TGI,UO-31 renal,> 100 µM
same,GI50,HOP-62 NSCLC,> 67.4 µM
same,TGI,HOP-62 NSCLC,> 100 µM
same,TGI,MCF7 breast,> 100 µM
same,GI50,RXF 393 renal,> 78.1 µM
same,TGI,RXF 393 renal,> 100 µM
same,GI50,OVCAR-8 ovarian,> 100 µM
same,TGI,OVCAR-8 ovarian,> 100 µM
same,GI50,SNB-75 CNS,> 100 µM
same,TGI,SNB-75 CNS,> 100 µM
same,GI50,MALME-3M melanoma,> 100 µM
same,TGI,MALME-3M melanoma,> 100 µM
same,GI50,IGROV1 ovarian,> 100 µM
same,TGI,IGROV1 ovarian,> 100 µM
same,GI50,HS 578T breast,> 100 µM
same,TGI,HS 578T breast,> 100 µM
same,GI50,TK-10 renal,> 51.8 µM
same,TGI,TK-10 renal,> 100 µM
same,GI50,CAKI-1 renal,> 100 µM
same,TGI,CAKI-1 renal,> 100 µM
same,GI50,HCC-2998 colon,> 100 µM
same,TGI,HCC-2998 colon,> 100 µM
same,TGI,HCT-116 colon,> 100 µM
same,GI50,UACC-257 melanoma,> 100 µM
same,TGI,UACC-257 melanoma,> 100 µM
same,GI50,MDA-MB-435,> 100 µM
same,TGI,MDA-MB-435,> 100 µM
same,GI50,HCT-15 colon,> 100 µM
same,TGI,HCT-15 colon,> 100 µM
same,GI50,UACC-62 melanoma,> 100 µM
same,TGI,UACC-62 melanoma,> 100 µM
same,GI50,M14 melanoma,> 100 µM
same,TGI,M14 melanoma,> 100 µM
same,GI50,SK-MEL-5 melanoma,> 100 µM
same,TGI,SK-MEL-5 melanoma,> 100 µM
same,GI50,SR leukemia,> 100 µM
same,TGI,SR leukemia,> 100 µM
same,GI50,MOLT-4 leukemia,> 100 µM
same,TGI,MOLT-4 leukemia,> 100 µM
same,GI50,SF-268 CNS,> 100 µM
same,TGI,SF-268 CNS,> 100 µM
same,GI50,BT-549 breast,> 49.9 µM
same,TGI,BT-549 breast,> 100 µM
same,GI50,HL-60(TB) leukemia,6.53 µM
same,TGI,HL-60(TB) leukemia,> 100 µM
same,GI50,COLO 205 colon,> 100 µM
same,TGI,COLO 205 colon,> 100 µM
same,GI50,MDA-MB-231 breast,> 100 µM
same,TGI,MDA-MB-231 breast,> 100 µM
same,GI50,SNB-19 CNS,> 100 µM
same,TGI,SNB-19 CNS,> 100 µM
same,GI50,LOX IMVI melanoma,> 100 µM
same,TGI,LOX IMVI melanoma,> 100 µM
same,GI50,786-0 renal,> 100 µM
same,TGI,786-0 renal,> 100 µM
same,GI50,ACHN renal,> 100 µM
same,TGI,ACHN renal,> 100 µM
same,GI50,RPMI-8226 leukemia,2.35 µM
same,TGI,RPMI-8226 leukemia,> 100 µM
same,GI50,SW-620 colon,> 100 µM
same,TGI,SW-620 colon,> 100 µM
same,GI50,NCI-H460 lung,> 100 µM
same,TGI,NCI-H460 lung,> 100 µM
same,GI50,SK-MEL-2 melanoma,> 100 µM
same,TGI,SK-MEL-2 melanoma,> 100 µM
same,GI50,EKVX NSCLC,> 100 µM
same,TGI,EKVX NSCLC,> 100 µM
same,GI50,HT29 colon,> 100 µM
same,TGI,HT29 colon,> 100 µM
same,GI50,U251 CNS,> 100 µM
same,TGI,U251 CNS,> 100 µM
same,GI50,SK-MEL-28 melanoma,> 100 µM
same,TGI,SK-MEL-28 melanoma,> 100 µM
same,GI50,T-47D breast,0.71 µM
same,TGI,T-47D breast,> 100 µM
same,GI50,DU-145 prostate,> 100 µM
same,TGI,DU-145 prostate,> 100 µM
same,GI50,CCRF-CEM leukemia,> 100 µM
same,TGI,CCRF-CEM leukemia,> 100 µM
